Measured values reported in patent US9539298B2, “Lissencephaly therapeutic agent” (OSAKA CITY UNIVERSITY, priority 2010, dated 2017).
Non-standard residues stand in square brackets, D forms with d. Residues, ends and D or L forms follow the SMILES beside them. Nle = CCCC[CH](N)C(=O)O

Tests used:
[1] = target: T1, μ-calpain (derived from human red blood cells) (Homo sapiens, UniProt P07384); assay: Measurement of inhibitory activity against μ-calpain; type: biochemical; settings: casein substrate, 30° C., 60 minutes; read-out: enzyme inhibitory activities (μM) μ-calpain
T1 construct: derived from human red blood cells; purchased Cosmo Bio Co., Ltd; host or cells: human red blood cells (tissue-purified)
T1 sequence (P07384 1-714): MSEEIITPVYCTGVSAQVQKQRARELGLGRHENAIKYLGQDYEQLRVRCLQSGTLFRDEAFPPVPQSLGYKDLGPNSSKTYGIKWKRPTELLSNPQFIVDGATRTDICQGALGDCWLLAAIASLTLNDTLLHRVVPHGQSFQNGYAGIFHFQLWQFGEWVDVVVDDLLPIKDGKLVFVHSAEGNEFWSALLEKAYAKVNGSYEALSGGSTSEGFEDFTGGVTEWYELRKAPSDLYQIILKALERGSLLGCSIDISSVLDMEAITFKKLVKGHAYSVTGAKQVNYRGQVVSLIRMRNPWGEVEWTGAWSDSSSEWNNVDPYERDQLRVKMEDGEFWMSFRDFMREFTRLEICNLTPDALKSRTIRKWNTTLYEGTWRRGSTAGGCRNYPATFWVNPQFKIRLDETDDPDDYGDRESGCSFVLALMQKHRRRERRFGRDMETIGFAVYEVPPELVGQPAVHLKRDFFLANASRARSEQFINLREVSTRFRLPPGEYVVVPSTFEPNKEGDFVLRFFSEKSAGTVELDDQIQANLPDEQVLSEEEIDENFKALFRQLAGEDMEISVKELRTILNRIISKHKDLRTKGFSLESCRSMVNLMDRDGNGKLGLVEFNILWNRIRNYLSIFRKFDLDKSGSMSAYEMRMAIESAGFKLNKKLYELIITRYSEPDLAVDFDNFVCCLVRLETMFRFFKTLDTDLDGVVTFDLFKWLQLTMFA
T1 sequence (P04632 1-268 partner): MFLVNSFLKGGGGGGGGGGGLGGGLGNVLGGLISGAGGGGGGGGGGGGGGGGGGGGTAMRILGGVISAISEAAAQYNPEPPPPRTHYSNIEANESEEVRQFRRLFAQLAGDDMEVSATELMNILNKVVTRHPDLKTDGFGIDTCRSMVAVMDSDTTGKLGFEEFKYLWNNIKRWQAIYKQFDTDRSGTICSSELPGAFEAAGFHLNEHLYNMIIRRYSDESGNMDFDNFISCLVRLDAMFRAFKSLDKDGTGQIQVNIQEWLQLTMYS
Method: (§1) The inhibitory activity against μ-calpain and m-calpain was assayed according to a published method (Anal. Biochem. 1993, vol. 208, p. 387-392). More specifically, 200 μL of a reaction solution containing 0.5 mg/mL casein, 50 mM Tris-HCl buffer (pH 7.4), 20 mM dithiothreitol and 1.0 nmol μ-calpain (derived from human red blood cells, Cosmo Bio Co., Ltd.) or m-calpain (derived from porcine kidney, Cosmo Bio Co., Ltd.) was added to individual 2.5 μL portions of DMSO solution containing a varying concentration of a test sample in a 96-well plate. Then, 50 μL of 20 mM aqueous calcium chloride was added thereto, and reaction was performed at 30° C. for 60 minutes. 100 μL of the reaction solution was transferred to another 96-well plate, and purified water (50 μL) and 50% aqueous solution (100 μL) of Protein Assay Dye Reagent (available from Bio-Rad Laboratories, Inc.; catalogue No. 500-600) were added thereto. The reaction mixture was allowed to stand at room temperature for 15 minutes, and its absorbance was measured at 595 nm. The absorbance of a reaction mixture prepared in the same manner as mentioned above, except that a DMSO solution containing no sample was used as a control value; and the absorbance of a reaction mixture prepared in the same manner as mentioned above, except that a 1 mM aqueous EDTA solution (50 μL) was used in place of 20 mM aqueous calcium chloride, was used as a blank value. […] Inhibition rate (%){1−(measured value−blank test value)/(control value−blank test value)}×100
The concentrations (IC50) are shown in Table 1 as enzyme (calpain) inhibitory activities (μM).

[2] = target: m-calpain (derived from porcine kidney) (Sus scrofa, UniProt I3LQD3); assay: Measurement of inhibitory activity against m-calpain; type: biochemical; settings: casein substrate, 30° C., 60 minutes; read-out: enzyme inhibitory activities (μM) m-calpain
Method: as §1, with “More” for “The inhibitory activity against μ-calpain and m-calpain was assayed according to a published method (Anal. Biochem. 1993, vol. 208, p. 387-392). More”, “The reaction mixture was allowed to stand at room temperature for 15 minutes, and its absorbance was measured at 595 nm.” left out

[3] = tested on: nerve cells from cerebellums of FVB mice; assay: Analysis of toxicity of calpain inhibitors on cultured cerebellar nerve cells; type: cell-based, mouse; settings: 16 hours, FIG. 24
Method: The cerebellums were removed from 4- to 5-day-old FVB mice (15 mice). In a Ca^2+-free Hank's Balanced Salt Solution (CF-HBSS; Ca^2+, Mg^2+-free Hank's Balanced Salt Solution (CMF-HBBS, Sigma) containing 5 mM magnesium chloride (MgCl2, Wako) and 4 mg/mL glucose (Wako)), the meninges were removed and cut into pieces. After the cerebellum fragments were washed with CF-HBSS, the fragments were allowed to stand for 20 minutes at 37° C. in CF-HBSS containing 0.025% trypsin (Invitrogen) and 6.25 μg/mL deoxyribonuclease (DNase, Sigma), and then centrifuged. The resulting tissues were washed with 10% HS/BME (DNase Medium; obtained by adding 5 mM MgCl2 and 25 μg/mL DNase to Basal Medium Eagle (BME, Invitrogen) containing 10% Horse Serum (HS, Invitrogen)) and centrifuged. DNase medium was added to the cells, and the cells were transferred to a 24-well plate (Nunc). The cells were kept still for 30 minutes at 37′C under an atmospheric environment of 5% CO2, thereby suspending the cells. The cell suspension was isolated, and then washed with 10% HS/BME. The suspension was transferred again to a 24-well plate to be cultured for 16 hours at 37° C. under an atmospheric environment of 5% CO2. The cells were collected to BME containing 1% Bovine Serum Albumin (BSA, Sigma) and 0.5% N2 supplement (Invitrogen), and the cell suspension was seeded on a 35 mm glass base dish (Iwaki) coated beforehand with poly-L-lysine (Sigma) and laminin (Sigma) in an amount of […]. The cells were cultured for 8 hours at 37° C. under an atmospheric environment of 5% CO2. The cultured nerve cells were used as test nerve cells.
A culture solution (10% HS/BME) containing SNJ-1945, E64d, or ALLN was prepared in the following manner. SNJ-1945 dissolved in dimethyl sulfoxide (Sigma, D-5879) was mixed with a culture solution so that the final concentration became 200 μM, and was kept still for an hour at 37° C., thereby completely dissolving SNJ-1945 in the culture medium. ALLN and E64d were also dissolved in culture media in the same manner, except that ALLN and E64d were added to the culture media to final concentrations of 50 μM and 100 μM, respectively. The culture media in which the components were dissolved were added to the test nerve cells prepared above in an amount of 2 ml/well, and the cells were cultured for 16 hours. As a control, the same culture was conducted using a culture medium containing the same amount of dimethyl sulfoxide (Sigma, D-5879). After culture, the cells were observed using an inverted microscope (TCS FP5S, Leica). A 20× objective lens was used. Images were taken using dedicated software (LAS AF, Leica) under the condition of 512×512 pixels.

[4] = tested on: cells with LIS1 gene heterozygous mutation (Lis1+/−); settings: Lis1+/− cells treated with ALLN, NPL 1; cited from earlier work

m-calpain (derived from porcine kidney), sequence (I3LQD3 entry or part of it): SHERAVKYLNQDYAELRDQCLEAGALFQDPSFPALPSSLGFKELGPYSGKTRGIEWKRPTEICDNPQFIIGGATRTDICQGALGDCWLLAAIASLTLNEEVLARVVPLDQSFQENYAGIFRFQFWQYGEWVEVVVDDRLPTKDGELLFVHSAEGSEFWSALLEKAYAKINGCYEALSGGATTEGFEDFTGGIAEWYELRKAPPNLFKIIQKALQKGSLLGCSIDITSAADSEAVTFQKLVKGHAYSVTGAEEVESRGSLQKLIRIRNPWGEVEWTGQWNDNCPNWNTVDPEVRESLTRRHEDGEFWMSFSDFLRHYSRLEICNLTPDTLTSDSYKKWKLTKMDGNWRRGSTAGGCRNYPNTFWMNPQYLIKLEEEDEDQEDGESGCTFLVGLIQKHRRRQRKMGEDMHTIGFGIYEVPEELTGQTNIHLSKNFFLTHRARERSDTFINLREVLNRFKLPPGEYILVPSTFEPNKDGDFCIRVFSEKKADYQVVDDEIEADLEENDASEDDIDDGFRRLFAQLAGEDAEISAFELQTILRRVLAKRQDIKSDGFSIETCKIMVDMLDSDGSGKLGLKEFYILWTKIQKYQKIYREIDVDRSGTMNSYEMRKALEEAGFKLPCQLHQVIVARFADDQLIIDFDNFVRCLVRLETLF
m-calpain (derived from porcine kidney), sequence (P04574 whole entry, further chain): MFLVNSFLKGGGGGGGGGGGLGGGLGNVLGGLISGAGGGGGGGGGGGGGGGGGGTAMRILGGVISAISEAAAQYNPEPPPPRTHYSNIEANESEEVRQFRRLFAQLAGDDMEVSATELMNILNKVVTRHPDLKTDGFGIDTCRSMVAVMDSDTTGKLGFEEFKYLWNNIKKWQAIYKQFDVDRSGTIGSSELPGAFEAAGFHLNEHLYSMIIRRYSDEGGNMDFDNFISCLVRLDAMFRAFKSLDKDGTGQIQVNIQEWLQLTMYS

Row | Compound | IC50 [1] | IC50 [2] | melting point | neurite elongation and cell migration (cytotoxicity) ([3]; 50 μM) | LIS1 protein expression [4] | neuronal migration [4] | neurite elongation and cell migration (cytotoxicity) ([3]; 100 μM)
1 | COCCOCCOCCOCCOC(=O)N[C@@H](CC(C)C)C(=O)N[C@@H](Cc1ccccc1)C(=O)C(=O)NC1CC1 [compound 19, ((1S)-1-((((1S)-1-Benzyl-2,3-dioxo-3-(cyclopropylamino)propyl)amino)carbonyl)-3-methylbutyl)carbamic acid 11-methoxy-3,6,9-trioxaundecanyl ester] | 0.22 µM | 0.17 µM | 97.5 to 98.5 °C |  |  |  | 
2 | CCCCC(C=O)NC(=O)C(CC(C)C)NC(=O)C(CC(C)C)NC(C)=O (stereo not drawn) [ALLN, N-Acetyl-Leu-Leu-Nle-CHO] (Ac-Leu-Leu-[Nle]-aldehyde; configuration not given here) |  |  |  | the cells were roundly aggregated, neurite elongation was hardly observed, the cells remained accumulated in the center, and migration was hardly observed | increased LIS1 protein expression | restored neuronal migration | 
3 | COCCOCCOCCOCCOCCOC(=O)N[C@@H](CC(C)C)C(=O)N[C@@H](Cc1ccccc1)C(=O)C(=O)NC1CC1 [compound 20, ((1S)-1-((((1S)-1-Benzyl-2,3-dioxo-3-(cyclopropylamino)propyl)amino)carbonyl)-3-methylbutyl)carbamic acid 14-methoxy-3,6,9,12-tetraoxatetradecanyl ester] | 0.42 µM | 0.19 µM | 98.5 to 99.9 °C |  |  |  | 
4 | CCOC(=O)[C@H]1O[C@@H]1C(=O)N[C@@H](CC(C)C)C(=O)NCCC(C)C [E64d, reference compound] |  |  |  |  |  |  | the cells were aggregated in the center, many cells were incapable of neurite elongation, little migration was observed compared with the control
